For 45 compounds, IC50 results are on record in patent publication US11053253B2, “Macrocyclic compounds for treatment of medical disorders” (Achillion Pharmaceuticals, Inc., priority 2017, dated 2021).

Where only a bound is given, the exact number is not on record here.

As usually defined, the IC50 is the concentration at which inhibition is half-maximal.

Human Factor D, sequence (P00746 26-253): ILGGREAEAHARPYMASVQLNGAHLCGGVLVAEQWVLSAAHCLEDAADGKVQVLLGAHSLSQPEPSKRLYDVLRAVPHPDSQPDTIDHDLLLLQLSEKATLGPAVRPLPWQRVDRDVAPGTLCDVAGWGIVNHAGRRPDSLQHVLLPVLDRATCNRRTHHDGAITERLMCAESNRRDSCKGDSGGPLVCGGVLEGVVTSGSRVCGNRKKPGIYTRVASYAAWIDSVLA

The target in the test is Human Factor D (Homo sapiens (Human), UniProt P00746). Nature of the test: Human Factor D Assay. The following applies: Human Factor D 80 nM, substrate Z-L-Lys-SBzl, DTNB, A405; read-out: IC50 (Stars). It counts as biochemical. In short, it runs like this:
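Serum-purified enzyme (80 nM final) was preincubated with compound 5 min at room temperature in 50 mM Tris, 1M NaCl, pH 7.5. Z-L-Lys-SBzl and DTNB ([…] each, final) were added and A405 followed every 30 s for 30 min; IC50 from nonlinear regression of reaction rates.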
Turning to `CC(=O)c1nn(CC(=O)N2[C@H]3C[C@@]4(CNC(=O)C(C)(C)C=CCOCc5ccc(Br)nc5NC3=O)C[C@@H]24)c2ccc(-c3cnc(C)nc3)cc12` [Compound T-131], the IC50 was < 1000 nM.
To `CC(=O)c1nn2c3c(nc(-c4cnc(C)nc4)cc13)CCCCCCC(=O)NC[C@@]13C[C@@H](C(=O)Nc4nc(C(F)(F)F)ccc4C)N(C(=O)C2)[C@@H]1C3` [Compound T-132] belongs < 1000 nM; to `Cc1ncc(-c2cc3c4c(c2)c(C#N)nn4CC(=O)N2[C@H](C(=O)Nc4nc(C(F)(F)F)ccc4C)C[C@@]4(CNC(=O)CCCC=CC3)C[C@@H]24)cn1` [Compound T-133], < 1000 nM.
As to `Cc1ncc(-c2cc3c4c(c2)c(C(N)=O)nn4CC(=O)N2[C@H](C(=O)Nc4nc(C(F)(F)F)ccc4C)C[C@@]4(CNC(=O)CCCC=CC3)C[C@@H]24)cn1` [Compound T-134], the IC50 is < 1000 nM.
The result for `CC(=O)c1nn2c3c(cc(-c4cnc(C)nc4)cc13)CCCCCCCc1cccc(c1)COC[C@@]13C[C@@H](C(=O)Nc4nc(Br)ccc4C)N(C(=O)C2)[C@@H]1C3` [Compound T-136] reads < 1000 nM.
On to `CC(=O)c1nn2c3c(cc(-c4cnc(C)nc4)cc13)CCCCC=CCc1cccc(n1)OC[C@@]13C[C@@H](C(=O)Nc4nc(Br)ccc4C)N(C(=O)C2)[C@@H]1C3` [Compound T-137], for which the 50% inhibitory concentration (IC50) is < 1000 nM.
For the compound `CC(=O)c1nn2c3c(cc(-c4cnc(C)nc4)cc13)COCC=CC(F)(F)C(=O)NC[C@@]13C[C@@H](C(=O)Nc4nc(C(F)(F)F)ccc4C)N(C(=O)C2)[C@@H]1C3` [Compound T-138], the half-maximal inhibitory concentration (IC50) was < 1000 nM.
On to `CC(=O)c1nn2c3c(cc(-c4cnc(C)nc4)cc13)CCCCCCCc1cccc(n1)OC[C@@]13C[C@@H](C(=O)Nc4nc(Br)ccc4C)N(C(=O)C2)[C@@H]1C3` [Compound T-139], for which the IC50 was < 1000 nM.
To `CC(=O)c1nn2c3c(cc(-c4cnc(C)nc4)cc13)CCCCCCc1cccc(n1)OC[C@@]13C[C@@H](C(=O)Nc4nc(Br)ccc4C)N(C(=O)C2)[C@@H]1C3` [Compound T-140] belongs < 1000 nM; to `CC(=O)c1nn2c3c(cc(-c4cnc(C)nc4)cc13)CCCCCc1cccc(n1)OC[C@@]13C[C@@H](C(=O)Nc4nc(Br)ccc4C)N(C(=O)C2)[C@@H]1C3` [Compound T-141], < 1000 nM.
`Cc1ncc(-c2cc3c4c(c2)c(C(N)=O)nn4CC(=O)N2[C@H](C(=O)Nc4nc(Br)ccc4C)C[C@@]4(CNC(=O)CCCC=CC3)C[C@@H]24)cn1` [Compound T-152]: the half-inhibitory concentration (IC50) is < 1000 nM.
Turning to `Cc1ncc(-c2cc3c4c(c2)c(C(N)=O)nn4CC(=O)N2[C@H](C(=O)Nc4nc(Br)ccc4C)C[C@@]4(CNC(=O)CCCCCC3)C[C@@H]24)cn1` [Compound T-153], the concentration for half-maximal inhibition (IC50) was < 1000 nM.
To `Cc1ncc(-c2cc3c4c(c2)c(C#N)nn4CC(=O)N2[C@H](C(=O)Nc4nc(C(F)(F)F)ccc4C)C[C@@]4(COCC=CCCC3)C[C@@H]24)cn1` [Compound T-154] belongs < 1000 nM.
Take `Cc1ncc(-c2cc3c(C#N)nn4c3c(n2)CCCCCCOC[C@@]23C[C@@H](C(=O)Nc5nc(C(F)(F)F)ccc5C)N(C(=O)C4)[C@@H]2C3)cn1` [Compound T-155]: the IC50 is < 1000 nM.
As to `Cc1ncc(-c2cc3c(C(N)=O)nn4c3c(n2)CCCCCCOC[C@@]23C[C@@H](C(=O)Nc5nc(C(F)(F)F)ccc5C)N(C(=O)C4)[C@@H]2C3)cn1` [Compound T-156], the IC50 was < 1000 nM.
`CC(=O)c1nn(CC(=O)N2[C@H]3C[C@@]4(CNC(=O)C(F)(F)CCCOCc5ccc(Br)nc5NC3=O)C[C@@H]24)c2ccc(-c3cnc(C)nc3)cc12` [Compound T-157]: the concentration for half-maximal inhibition (IC50) is < 1000 nM.
Take `CC(=O)c1nn(CC(=O)N2C[C@@]3(F)COCCCCOCc4ccc(Br)nc4NC(=O)[C@@H]2C3)c2cnc(-c3cnc(C)nc3)cc12` [Compound T-161]: the IC50 was < 1000 nM.
On to `CC(=O)c1nn(CC(=O)N2C[C@@]3(F)COCCCCOCc4ccc(Br)nc4NC(=O)[C@@H]2C3)c2ccc(-c3cnc(C)nc3)cc12` [Compound T-162], for which the IC50 was < 1000 nM.
With `CC(=O)c1nn2c3c(nc(-c4cnc(C)nc4)cc13)CCCCCCCOC[C@@]13C[C@@H](C(=O)Nc4nc(C(F)(F)F)ccc4C)N(C(=O)C2)[C@@H]1C3` [Compound T-163], the IC50 was < 1000 nM.
Turning to `CC(=O)c1nn(CC(=O)N2[C@H]3C[C@@]4(CNC(=O)CCOCc5ccc(Br)nc5NC3=O)C[C@@H]24)c2ccc(-c3cnc(C)nc3)cc12` [Compound T-164], the IC50 was < 1000 nM.
In the case of `CC(=O)c1nn(CC(=O)N2[C@H]3C[C@@]4(COc5cccc(n5)CCCCCCCc5ccc(Br)nc5NC3=O)C[C@@H]24)c2ccc(-c3cnc(C)nc3)cc12` [Compound T-165], the IC50 is < 1000 nM.
The result for `CC(=O)c1nn2c3c(cc(-c4cnc(C)nc4)cc13)CC=CCCCC(=O)NC[C@]1(F)CN(C[C@@H]1C(=O)Nc1nc(C(F)(F)F)ccc1C)C(=O)C2` [Compound T-167] reads < 1000 nM.
To `CC(=O)c1nn2c3c(cc(-c4cnc(C)nc4)cc13)CCCCCCC(=O)NC[C@@]1(F)C[C@@H](C(=O)Nc3nc(C(F)(F)F)ccc3C)N(C1)C(=O)C2` [Compound T-168] belongs < 1000 nM.
Consider `CC(=O)c1nn(CC(=O)N2C[C@@]3(F)CNC(=O)CCCCCOCc4ccc(Br)nc4NC(=O)[C@@H]2C3)c2cnc(-c3cnc(C)nc3)cc12` [Compound T-169], for which the IC50 was < 1000 nM.
In the case of `CC(=O)c1nn(CC(=O)N2C[C@@]3(F)CNC(=O)C(C)(C)CC=CCOCc4ccc(Br)nc4NC(=O)[C@@H]2C3)c2cnc(-c3cnc(C)nc3)cc12` [Compound T-170], the concentration for half-maximal inhibition (IC50) was < 1000 nM.
For `CC(=O)c1nn(CC(=O)N2C[C@@]3(F)CNC(=O)C(C)(C)CCCCOCc4ccc(Br)nc4NC(=O)[C@@H]2C3)c2cnc(-c3cnc(C)nc3)cc12` [Compound T-171], the IC50 is < 1000 nM.
For the compound `CC(=O)c1nn(CC(=O)N2C[C@@]3(F)CNC(=O)C(C)(C)CC=CCOCc4ccc(Br)nc4NC(=O)[C@@H]2C3)c2ccc(-c3cnc(C)nc3)cc12` [Compound T-172], the IC50 is < 1000 nM.
As to `CC(=O)c1nn(CC(=O)N2C[C@@]3(F)CNC(=O)C(C)(C)CCCCOCc4ccc(Br)nc4NC(=O)[C@@H]2C3)c2ccc(-c3cnc(C)nc3)cc12` [Compound T-173], the half-inhibitory concentration (IC50) was < 1000 nM.
For the compound `CC(=O)c1nn2c3c(cc(-c4cnc(C)nc4)cc13)CC=CCCCC(=O)NC[C@@]1(F)C[C@@H](C(=O)Nc3nc(Br)ccc3C)N(C1)C(=O)C2` [Compound T-174], the IC50 was < 1000 nM.
The result for `CC(=O)c1nn2c3c(cc(-c4cnc(C)nc4)cc13)CCCCCCC(=O)NC[C@@]1(F)C[C@@H](C(=O)Nc3nc(Br)ccc3C)N(C1)C(=O)C2` [Compound T-175] reads < 1000 nM; that for `CC(=O)c1nn2c3c(cc(-c4cnc(C)nc4)cc13)CCCCCCC(=O)NC[C@@]13C[C@@H](C(=O)N[C@@H](C)c4ccccc4)N(C(=O)C2)[C@@H]1C3` [Compound T-176], < 1000 nM.
`CC(=O)c1nn2c3c(cc(-c4cnc(C)nc4)cc13)CCCCCCC(=O)NC[C@@]13C[C@@H](C(=O)NCCC(C)(C)C)N(C(=O)C2)[C@@H]1C3` [Compound T-177]: the half-inhibitory concentration (IC50) was < 1000 nM.
The result for `CC(=O)c1nn(CC(=O)N2C[C@@]3(F)CNC(=O)CCCCCOCc4ccc(Br)nc4NC(=O)[C@@H]2C3)c2ccc(-c3cnc(C)nc3)cc12` [Compound T-178] reads < 1000 nM; that for `CC(=O)c1nn(CC(=O)N2C[C@@]3(F)COCCCCCCc4ccc(Br)nc4NC(=O)[C@@H]2C3)c2cnc(-c3cnc(C)nc3)cc12` [Compound T-179], < 1000 nM; that for `CC(=O)c1nn(CC(=O)N2[C@H]3C[C@@]4(CNC(=O)C(C)(C)CCCCCc5ccc(Br)nc5NC3=O)C[C@@H]24)c2cnc(-c3cnc(C)nc3)cc12` [Compound T-180], < 1000 nM.
Consider `CC(=O)c1nn(CC(=O)N2[C@H]3C[C@@]4(CNC(=O)C(C)(C)CCCCc5ccc(Br)nc5NC3=O)C[C@@H]24)c2cnc(-c3cnc(C)nc3)cc12` [Compound T-181], for which the half-maximal inhibitory concentration (IC50) is < 1000 nM.
As to `CC(=O)c1nn(CC(=O)N2[C@H]3C[C@@]4(CNC(=O)C(C)(C)CCCCCc5ccc(Br)nc5NC3=O)C[C@@H]24)c2ccc(-c3cnc(C)nc3)cc12` [Compound T-182], the IC50 is < 1000 nM.
Turning to `CC(=O)c1nn(CC(=O)N2[C@H]3C[C@@]4(CNC(=O)C(C)(C)CCCCc5ccc(Br)nc5NC3=O)C[C@@H]24)c2ccc(-c3cnc(C)nc3)cc12` [Compound T-183], the IC50 is < 1000 nM.
Regarding `CC(=O)c1nn2c3c(cc(-c4cnc(C)nc4)cc13)CC=CCCC(C)(C)C(=O)NC[C@@]13C[C@@H](C(=O)Nc4ccn(CC(F)(F)F)n4)N(C(=O)C2)[C@@H]1C3` [Compound T-184], the half-maximal inhibitory concentration (IC50) was < 1000 nM.
For the compound `CC(=O)c1nn2c3c(cc(-c4cnc(C)nc4)cc13)CCCCCC(C)(C)C(=O)NC[C@@]13C[C@@H](C(=O)Nc4ccn(CC(F)(F)F)n4)N(C(=O)C2)[C@@H]1C3` [Compound T-185], the half-maximal inhibitory concentration (IC50) was < 1000 nM.
As for `CC(=O)c1nn2c3c(cc(-c4cnc(C)nc4)cc13)CCCCCC(C)(C)C(=O)N(C)C[C@@]13C[C@@H](C(=O)Nc4cccc(C(F)(F)F)n4)N(C(=O)C2)[C@@H]1C3` [Compound T-186], the IC50 was < 1000 nM.
Turning to `Cc1ncc(-c2cc3c4c(c2)c(C(N)=O)nn4CC(=O)N2[C@H](C(=O)Nc4nc(C(F)(F)F)ccc4C)C[C@@]4(COCCCCCCC3)C[C@@H]24)cn1` [Compound T-187], the IC50 was < 1000 nM.
For `CC(=O)c1nn2c3c(cc(-c4cnc(C)nc4)cc13)CCCCCCC(=O)NC[C@@]13C[C@@H](C(=O)N[C@H](C)c4ccccc4)N(C(=O)C2)[C@@H]1C3` [Compound T-188], the half-inhibitory concentration (IC50) was < 1000 nM.
With `CC(=O)c1nn2c3c(cc(-c4cnc(C)nc4)cc13)CC=CCCCC(=O)NC[C@@]13C[C@@H](C(=O)Nc4cc(C)cc(Br)n4)N(C(=O)C2)[C@@H]1C3` [Compound T-189], the IC50 is < 1000 nM.
With `CC(=O)c1nn2c3c(cc(-c4cnc(C)nc4)cc13)CCCCCCC(=O)NC[C@@]13C[C@@H](C(=O)Nc4cc(C)cc(Br)n4)N(C(=O)C2)[C@@H]1C3` [Compound T-190], the IC50 was < 1000 nM.
